Experimental findings from patent publication US11306092B2, “Amino indole compounds useful as TLR inhibitors” (BRISTOL-MYERS SQUIBB COMPANY, priority 2017, dated 2022) are described below.

Structures can show the parent of a compound that is named as a salt.

Common to all, as to format: cell-based
One test deals with T1, human TLR8 (Homo sapiens, UniProt Q9NR97).
T1 construct: host or cells: HEK-Blue cells
T1 sequence (Q9NR97 27-1041): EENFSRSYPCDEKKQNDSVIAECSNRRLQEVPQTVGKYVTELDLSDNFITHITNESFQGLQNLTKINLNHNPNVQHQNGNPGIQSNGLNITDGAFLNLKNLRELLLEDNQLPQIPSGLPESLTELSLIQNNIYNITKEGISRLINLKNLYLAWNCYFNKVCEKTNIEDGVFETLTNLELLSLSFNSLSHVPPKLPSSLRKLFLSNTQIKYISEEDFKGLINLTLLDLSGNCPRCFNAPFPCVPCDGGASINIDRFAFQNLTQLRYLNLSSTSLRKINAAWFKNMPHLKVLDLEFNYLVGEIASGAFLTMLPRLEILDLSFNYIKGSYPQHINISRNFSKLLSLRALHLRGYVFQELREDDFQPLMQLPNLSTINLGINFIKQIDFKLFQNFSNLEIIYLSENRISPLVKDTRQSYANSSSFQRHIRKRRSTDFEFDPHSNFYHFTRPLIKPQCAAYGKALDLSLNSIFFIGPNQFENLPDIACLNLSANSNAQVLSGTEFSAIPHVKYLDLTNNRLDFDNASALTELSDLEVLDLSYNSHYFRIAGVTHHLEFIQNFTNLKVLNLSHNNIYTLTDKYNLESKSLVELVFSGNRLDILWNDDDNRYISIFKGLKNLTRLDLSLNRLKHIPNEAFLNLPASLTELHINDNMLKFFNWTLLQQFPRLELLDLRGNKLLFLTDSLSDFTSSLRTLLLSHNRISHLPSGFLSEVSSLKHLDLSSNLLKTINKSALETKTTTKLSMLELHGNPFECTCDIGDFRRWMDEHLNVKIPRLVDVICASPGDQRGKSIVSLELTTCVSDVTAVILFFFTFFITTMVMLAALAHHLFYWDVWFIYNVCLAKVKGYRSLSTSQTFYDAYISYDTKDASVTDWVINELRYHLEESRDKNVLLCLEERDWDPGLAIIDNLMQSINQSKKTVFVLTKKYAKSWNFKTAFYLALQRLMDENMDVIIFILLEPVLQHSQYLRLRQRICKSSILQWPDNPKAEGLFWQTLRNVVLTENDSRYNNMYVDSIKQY
Put plainly: TLR8 inhibition reporter assay (HEK-Blue SEAP reporter). Conditions: HEK-Blue cells overexpressing human TLR8; R848 15.9 μM; 22 hour incubation. Put shortly: (§1)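 Dose–response from 0.05 nM to 50 μM was run in HEK-Blue human TLR7, TLR8 and TLR9 reporter cells. After 30 min at room temperature with compound, ligand was added (TLR7 gardiquimod 7.5 μM; TLR8 R848 15.9 μM; TLR9 ODN2006 5 nM) and SEAP measured next day, at 22 h.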
In general terms: In a reporter assay the amount or activity of a reporter protein is the signal.

The target in another test is T2, human TLR9 (Homo sapiens, UniProt Q9NR96).
T2 construct: host or cells: HEK-Blue cells
T2 sequence (Q9NR96 26-1032): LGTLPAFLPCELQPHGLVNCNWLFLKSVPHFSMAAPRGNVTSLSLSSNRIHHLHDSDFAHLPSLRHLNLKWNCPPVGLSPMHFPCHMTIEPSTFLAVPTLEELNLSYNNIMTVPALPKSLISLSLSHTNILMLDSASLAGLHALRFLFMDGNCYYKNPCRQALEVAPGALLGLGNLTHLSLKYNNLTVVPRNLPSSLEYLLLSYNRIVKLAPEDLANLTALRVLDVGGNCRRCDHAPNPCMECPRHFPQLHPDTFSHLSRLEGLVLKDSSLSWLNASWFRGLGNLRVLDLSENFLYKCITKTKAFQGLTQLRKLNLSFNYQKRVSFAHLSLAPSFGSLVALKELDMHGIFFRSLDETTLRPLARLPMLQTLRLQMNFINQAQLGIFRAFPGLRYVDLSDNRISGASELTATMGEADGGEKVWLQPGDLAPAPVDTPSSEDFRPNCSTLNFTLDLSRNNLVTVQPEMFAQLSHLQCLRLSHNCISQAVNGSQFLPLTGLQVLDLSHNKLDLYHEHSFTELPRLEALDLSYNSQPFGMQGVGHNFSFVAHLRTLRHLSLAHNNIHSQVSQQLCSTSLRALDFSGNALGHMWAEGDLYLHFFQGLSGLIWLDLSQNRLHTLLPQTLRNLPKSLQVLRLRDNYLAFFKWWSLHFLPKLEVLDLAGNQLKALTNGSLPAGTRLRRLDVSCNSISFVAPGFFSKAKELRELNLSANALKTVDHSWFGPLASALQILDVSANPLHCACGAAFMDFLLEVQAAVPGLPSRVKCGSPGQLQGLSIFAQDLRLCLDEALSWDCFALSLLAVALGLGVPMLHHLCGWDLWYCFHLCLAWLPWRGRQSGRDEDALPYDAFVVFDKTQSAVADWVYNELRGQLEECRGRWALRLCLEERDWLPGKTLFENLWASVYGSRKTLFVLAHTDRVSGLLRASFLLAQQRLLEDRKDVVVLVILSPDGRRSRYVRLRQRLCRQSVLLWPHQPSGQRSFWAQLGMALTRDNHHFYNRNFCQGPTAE
In words: TLR9 inhibition reporter assay (HEK-Blue SEAP reporter). The following applies: HEK-Blue cells overexpressing human TLR9; ODN2006 5 nM; 22 hour incubation. Put shortly:
as §1

Another test deals with T3, human TLR7 (Homo sapiens, UniProt Q9NYK1).
T3 construct: host or cells: HEK-Blue cells
T3 sequence (Q9NYK1 27-1049): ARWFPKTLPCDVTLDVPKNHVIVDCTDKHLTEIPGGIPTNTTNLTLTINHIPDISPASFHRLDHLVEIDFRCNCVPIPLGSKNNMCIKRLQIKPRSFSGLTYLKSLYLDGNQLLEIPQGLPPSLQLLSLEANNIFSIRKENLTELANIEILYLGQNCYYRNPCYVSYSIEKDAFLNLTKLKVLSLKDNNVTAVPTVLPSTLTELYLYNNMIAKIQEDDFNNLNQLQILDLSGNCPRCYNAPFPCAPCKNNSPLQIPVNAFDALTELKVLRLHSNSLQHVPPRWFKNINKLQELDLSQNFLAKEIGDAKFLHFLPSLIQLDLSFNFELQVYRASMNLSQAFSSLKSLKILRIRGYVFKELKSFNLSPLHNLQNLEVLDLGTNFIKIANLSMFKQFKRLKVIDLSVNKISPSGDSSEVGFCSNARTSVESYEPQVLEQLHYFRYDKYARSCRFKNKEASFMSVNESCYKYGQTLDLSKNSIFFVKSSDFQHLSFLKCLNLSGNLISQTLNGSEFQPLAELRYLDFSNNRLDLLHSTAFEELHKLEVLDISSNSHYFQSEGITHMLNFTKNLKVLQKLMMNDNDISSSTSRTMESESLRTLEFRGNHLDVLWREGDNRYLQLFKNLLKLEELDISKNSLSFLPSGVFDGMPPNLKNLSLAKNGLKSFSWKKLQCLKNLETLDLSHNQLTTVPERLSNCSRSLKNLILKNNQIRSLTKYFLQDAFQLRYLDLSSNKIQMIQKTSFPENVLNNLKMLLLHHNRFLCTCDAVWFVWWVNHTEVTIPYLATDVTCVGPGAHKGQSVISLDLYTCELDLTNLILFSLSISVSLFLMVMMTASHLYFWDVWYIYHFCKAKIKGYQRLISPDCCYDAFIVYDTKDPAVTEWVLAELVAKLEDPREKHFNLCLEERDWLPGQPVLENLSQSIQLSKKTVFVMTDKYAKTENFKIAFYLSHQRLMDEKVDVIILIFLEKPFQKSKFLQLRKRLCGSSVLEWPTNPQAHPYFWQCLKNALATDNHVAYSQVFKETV
In words: TLR7 inhibition reporter assay (HEK-Blue SEAP reporter). Conditions: HEK-Blue cells overexpressing human TLR7; gardiquimod 7.5 μM; 22 hour incubation. Put shortly: as §1

For `COc1ccc(-c2[nH]c3ccc(N4CCN(C5CCN(C)CC5)CC4)cc3c2C)cc1OC` [Example 149, 2-(3,4-dimethoxyphenyl)-3-methyl-5-(4-(1-methylpiperidin-4-yl)piperazin-1-yl)-1H-indole], the figures for the IC50 against human TLR8, at human TLR9 and against human TLR7 were 62 nM, 727 nM and 681 nM, respectively.

With `COc1ccc(-c2[nH]c3ccc(N4CCC(N5CCNCC5)CC4)cc3c2C(C)C)cc1OC` [Example 73, 2-(3,4-dimethoxyphenyl)-3-isopropyl-5-(4-(piperazin-1-yl)piperidin-1-yl)-1H-indole], the IC50 was 65 nM against human TLR8, 2110 nM at human TLR9 and 63 nM at human TLR7.

With `COc1ccc(-c2[nH]c3ccc(N4CCC(N5CCN(CCCN6CCCC6)CC5)CC4)cc3c2C(C)C)cc1OC` [Example 102, 2-(3,4-dimethoxyphenyl)-3-isopropyl-5-(4-(4-(3-(pyrrolidin-1-yl)propyl)piperazin-1-yl)piperidin-1-yl)-1H-indole], the IC50 against human TLR8 worked out at 28 nM; against human TLR9 it was 413 nM; at human TLR7 it was 16 nM.

With `C#CCCCN1CCN(c2ccc3[nH]c(-c4ccc(OC)c(OC)c4)c(C(C)C)c3c2)CC1` [Example 146, 2-(3,4-dimethoxyphenyl)-3-isopropyl-5-(4-(pent-4-yn-1-yl)piperazin-1-yl)-1H-indole], the IC50 is 12 nM at human TLR8, 1950 nM on human TLR9 and 206 nM at human TLR7.

Turning to `Cc1c(-c2[nH]c3ccc(N4CCC(N(C)C)CC4)cc3c2C(C)C)cn(C)c(=O)c1Cl` [Example 111, 3-chloro-5-(5-(4-(dimethylamino)piperidin-1-yl)-3-isopropyl-H-indol-2-yl)-1,4-dimethyl-114,215-pyridin-2-one], the 50% inhibitory concentration (IC50) against human TLR8 was 1.8 nM; on human TLR9, 3460 nM; on human TLR7 it was 2.4 nM.

Regarding `COc1ccc(-c2[nH]c3ccc(N4CCC(N5CCN(c6ccncc6)CC5)CC4)cc3c2C(C)C)cc1OC` [Example 94, 2-(3,4-dimethoxyphenyl)-3-isopropyl-5-(4-(4-(pyridin-4-yl)piperazin-1-yl)piperidin-1-yl)-1H-indole], the concentration for half-maximal inhibition (IC50) at human TLR8 amounted to 3.5 nM; against human TLR9, 816 nM; at human TLR7 it was 33 nM.

On to `Cc1cc(-c2[nH]c3ccc(N4CCC(N5CCN(C(C)C)CC5)C4=O)cc3c2C(C)C)cc(C)n1` (single isomer, unassigned) [Example 5, 1-(2-(2,6-dimethylpyridin-4-yl)-3-isopropyl-1H-indol-5-yl)-3-(4-isopropylpiperazin-1-yl) pyrrolidin-2-one], for which the IC50 on human TLR8 was 5.8 nM; on human TLR9, 597 nM; against human TLR7 it was 6.4 nM.

In the case of `COc1ccc(-c2[nH]c3ccc(NC(=O)[C@@H](N)C4CCCCC4)cc3c2C(C)C)cc1OC` [Example 26, (S)-2-amino-2-cyclohexyl-N-(2-(3,4-dimethoxyphenyl)-3-isopropyl-1H-indol-5-yl)acetamide], the IC50 was 194 nM against human TLR8, 11300 nM against human TLR9 and 1180 nM against human TLR7.

Take `COc1ccc(-c2[nH]c3ccc(N4CCN(C5CCN(CC(C)C)CC5)CC4)cc3c2C)cc1OC` [Example 170, 2-(3,4-dimethoxyphenyl)-5-(4-(1-isobutylpiperidin-4-yl)piperazin-1-yl)-3-methyl-1H-indole]: the IC50 against human TLR8 was 48400 nM; at human TLR9 it was 465 nM; against human TLR7, 19100 nM.

With `COc1ccc(-c2[nH]c3ccc(N4CCC(NC5CCN(C(C)C)CC5)CC4)cc3c2C(C)C)cc1OC` [Example 192, 1-(2-(3,4-dimethoxyphenyl)-3-isopropyl-1H-indol-5-yl)-N-(1-isopropylpiperidin-4-yl)piperidin-4-amine], the IC50 on human TLR8 is 7.7 nM; against human TLR9, 322 nM; against human TLR7 it was 36 nM.

Take `CCc1c(-c2ccc(OC)c(OC)c2)[nH]c2ccc(N3CCN(C4CCN(CC(C)C)CC4)CC3)cc12` [Example 177, 2-(3,4-dimethoxyphenyl)-3-ethyl-5-(4-(1-isobutylpiperidin-4-yl)piperazin-1-yl)-1H-indole]: the IC50 on human TLR8 came out at 11 nM; against human TLR9, 1540 nM; against human TLR7 it was 166 nM.

In the case of `COc1ccc(-c2[nH]c3ccc(N4CCNCC4)cc3c2C(C)C)cc1OC` [Example 126, 2-(3,4-dimethoxyphenyl)-3-isopropyl-5-(piperazin-1-yl)-1H-indole, TFA Salt], the values for the IC50 on human TLR8, against human TLR9 and on human TLR7 were 14 nM, 4740 nM and 53 nM, respectively.

For `COc1ccc(-c2[nH]c3ccc(N4CCCCC4c4ccncc4)cc3c2C(C)C)cc1OC` (stereo not drawn) [Example 113, 2-(3,4-dimethoxyphenyl)-3-isopropyl-5-(2-(pyridin-4-yl)piperidin-1-yl)-1H-indole], the IC50 against human TLR8 is 1280 nM; against human TLR9, more than 50000 nM; on human TLR7, 1200 nM.

A word on the IC50: it is the concentration that gives 50% inhibition. Lower therefore signals inhibition by little substance.
